Positions of bridges follow the written chain, without caps; N, C: chain ends. No end group written: not given here.

The record followed here is US10632181B2, “Composition, containing RGD motif-containing peptide or fragment thereof, for treating burns and glaucoma, alleviating skin wrinkles, and promoting hair growth” (HUONS CO., LTD., priority 2014, dated 2020).

For test [1], the system named is 2-degree burns of male SD rats. In words: Burn treatment test: histopathology (H&E) of burn site. Type of test: in vivo, SD (Sprague-Dawley) rats. The following applies: score 0-4, 14th day after burn. Here is the method: The experiment was carried out with 55 male SD (Sprague-Dawley) rats that were divided into […] groups: 5 rats for normal group (1 group, G1), 9-10 rats for negative control (1 group, G2), 30 rats for experimental group (3 groups, 10 rats in each group, G3, G4, G5), and 9-10 rats for positive control (1 group, G6). In the remaining groups except normal group, burned male SD rats was used for experiment. After SD rats were anesthesized, 2-degree burns, 2 cm in diameter, were induced on the SD rats using an aluminum electric soldering iron.
Test substance HU022 (SEQ ID NO:1) (G3, G4, G5), normal saline solution (G2) and Fiblast (G6) were applied to the skin of the burned male SD rats repeatedly once a day seven times a week for 7 days. Fiblast was applied to control group (G6) in 10 μg/dose/head, and the experimental group was divided into 3 groups and test substance was applied to each group in 3.3 μg/dose/head (G3), 10 μg/dose/head (G4), and 30 μg/dose/head (G5).
On the 14th day after burn, the burn site on the back was scraped from the dermis and fixed in 10% neutrally buffered formalin solution, and histopathology test was conducted through H&E staining.
With the measurement results, parametric comparison determined significance via Student's t-test and One-Way ANOVA, and significance testing relative to negative control was conducted. Furthermore, with the histopathology test results of burns, Kruskal-Wallis' H-test was conducted, and when significance between groups was identified, comparison between groups was performed through Mann-Whitney U-test. The computation program for statistics was SPSS 10.1 K. P<0.05 was determined to be statistically significant.

Test [2] deals with hair growth of C57BL/6 mouse. In words: Hair growth test: hair weight. Type of test: in vivo. As for the experimental part:
This test was conducted to assess the influence on hair growth of C57BL/6 mouse when 4 types of test substances, HU024 (SEQ ID NO:2), HU025 (SEQ ID NO:3), HU026 (SEQ ID NO:4), and HU027 (SEQ ID NO:5), were applied to the skin for 14 days.
The group design was set to negative control (sterile water for injection G1), test substance HU024 (SEQ ID NO:2) 20 ug/head/day (G2), test substance HU024 (SEQ ID NO:2) 60 ug/head/day (G3), test substance HU025 (SEQ ID NO:3) 20 ug/head/day (G4), test substance HU025 (SEQ ID NO:3) 60 ug/head/day (G5), test substance HU026 (SEQ ID NO:4) 20 ug/head/day (G6), test substance HU026 (SEQ ID NO:4) 60 ug/head/day (G7), test substance HU027 (SEQ ID NO:5) 20 ug/head/day (G8), test substance HU027 (SEQ ID NO:5) 60 ug/head/day (G9) and positive control minoxyl 3% (G10) administered groups. Each group had 10 animals.
After the animal was put under anesthesia using zoletil (1 mL/kg, i.p), the back of the animal was primarily shaved using a depilator, and Veet depilatory was evenly applied on the back. After about 5 minutes, the applied site was cleaned up using gauze moistened with sterile water for injection. Only animal whose shaved back was scarlet in color was used for group separation. The test substance was applied to the same site daily once per day, 7 times per week for 14 days, and the test substance was evenly applied to the shaved site (on the back) by rubbing with a glass rod about 10 times.
The hair growing area (%) relative to the test substance-applied area was measured and determined, and Image analyzer program (Image Pro Plus ver. 6.3, Cybermetics, USA) was used to measure. It was measured on the 1st, 3rd, 7th, 10th and 14th days after test substance administration. Imaging was performed together with the measurements on the date when the hair area was measured. On the next day after the end of application, the animals were killed by CO2 gas, and hair on the hair growing area was removed by a depilator and hair weight was measured.
The measurement results were analyzed using SPSS (ver. 10.1K), Duncan t-test for weight changes was conducted through one-way analysis of variance, hair weight was compared between groups using Student's t-test, and hair growing area was compared between groups through nonparametric multiple comparison procedures Whitney-Mann methods. P<0.05 was determined to be statistically significant.

For test [3], the system named is glaucoma animal model having microbead-induced elevated intraocular pressure. Put plainly: Glaucoma test: intraocular pressure. Type of test: in vivo, mouse. The note with it: 20 ug/ml applied to eye once daily. Here is the method: For control drug, Taflotan eye drops (Santen Pharmaceutical Co., Ltd.) were used, and for test drug, Taflotan eye drops+HU024 (SEQ ID NO:2) (sample 1), HU024 (SEQ ID NO:2) (sample 2), HU025 (SEQ ID NO:3) (sample 3), HU026 (SEQ ID NO:4) (sample 4), and HU027 (SEQ ID NO:5) (sample 5) were used, and testing was performed on glaucoma animal model having microbead-induced elevated intraocular pressure. In experimental animal model, Rompun solution for injection and zoletil were mixed and used to put the experimental animal under anesthesia, topical anesthetic Alcaine was applied to eye, 1×106 microbead/mL 1 μL was injected into anterior chamber using micro glass needle to induce an increase in intraocular pressure for 2 weeks (IOVS 2011 Vol. 52 36-).
The control drug and 5 samples were provided to the experimental animal having the elevated intraocular pressure for 2 weeks, 5 samples were applied to eye once daily, comparative verification of efficacy was performed, and intraocular pressure reduction and optic nerve cell in the retina was observed through administration for 4 weeks.
The intraocular pressure was measured using a contact-type intraocular pressure meter Tono lab's tonometer TV02 model. […] In 5-7 days after fluorescent probe injection, the eye was enucleated and fixed in 4% paraformaldehyde at room temperature for 4 hours. The retina was separated from choroid of the fixed eye and mounted on a slide. In each experimental group slide, optic nerve cell expressing fluorescence was detected using fluorescence microscope, images were taken at a magnification of ×40 and ×200, and data was collected.

As for “HU022: polypeptide consisting of 452nd-509th amino acids of ADAM 15 (GenBank AAH14566.1), 58 amino acids; commercial product (EYEGENE Inc.)”, in test [1] (3.3 μg/head/day), the Epidermal regeneration amounted to 0.1 ± 0.0 points, the Eschar is reported as 4.0 ± 0.0 points, the “Fibroplasia (connective tissue growth)” value is listed as 3.1 ± 0.3 points and the “Infiltration of Inflammatory cells” value is 3.0 ± 0.0 points. For the same substance, the “Pilosebaceous (skin appendage regeneration)” value (“Pilosebaceous” for short) in test [1] (3.3 μg/head/day) amounted to 0.1 ± 0.3 points. Besides, in test [1] (10 μg/head/day), the Epidermal regeneration is 0.6 ± 0.5 points, the Eschar was determined as 3.2 ± 0.6 points, the “Fibroplasia (connective tissue growth)” value came to 3.0 ± 0.5 points and the “Infiltration of Inflammatory cells” value is given as 3.0 ± 0.0 points. Further, in test [1] (10 μg/head/day), the “Pilosebaceous” value worked out at 0.9 ± 1.1 points. Also, in test [1] (30 μg/head/day), the Epidermal regeneration was found to be 0.6 ± 0.7 points, the Eschar turned out to be 2.7 ± 0.7 points, the “Fibroplasia (connective tissue growth)” value was 3.3 ± 0.5 points and the “Infiltration of Inflammatory cells” value is given as 3.0 ± 0.0 points. For the same substance, in test [1] (30 μg/head/day), the “Pilosebaceous” value was determined as 1.1 ± 1.0 points.

Regarding “HU024 (RPTRGDCDLPEFCPG; disulfide 7-13; listed as Homo sapiens)”, the “HAIR WEIGHTS” value in test [2] (20 ug/head/day for 14 days) was 0.016 ± 0.003 g; in test [2] (60 ug/head/day for 14 days), 0.023 ± 0.008 g. Besides, in test [3], the “intraocular pressure change” value is “A reduction in intraocular pressure was observed”.
